These results are taken from article PMC10380841, “Synthesis, Characterization and Cytotoxic Evaluation of New Pyrrolo[1,2-b]pyridazines Obtained via Mesoionic Oxazolo-Pyridazinones” (International Journal of Molecular Sciences, 2023).

Data set [1] in a line: Daphnia magna toxicity assay. Format: in vivo. The note with it: Daphnia magna, in vivo; 48 h. The procedure:
(§1) Young organisms of Daphnia magna were selected according to their size from a parthenogenetic culture maintained in an artificial medium for 24 h before the bioassay. The determination was conducted in tissue culture plates with 12 wells (Greiner Bio-One, Monroe, NC, USA), with 10 organisms in each well, and a final volume of 3 mL per sample [65, 66]. As a negative control, DMSO was used at a concentration of 1%. All compounds were tested at six different concentration levels, ranging from 12.5 to 500 μg/mL. All assessments were performed in duplicate.

The test system of another data set is Daphnia magna Straus. The experiment in a line: Daphnia magna toxicity assay. The format is in vivo. The settings on record: 48 h. The procedure:
as §1

For data set [2], the system named is LoVo colon adenocarcinoma cells. The experiment in a line: MTS cytotoxicity assay, LoVo. The format is cell-based, human. The note with it: Homo sapiens. The procedure:
(§2) Therefore, the precursor acids 2a–c and corresponding pyrrolo[1,2-b]pyridazines 5a–c,f were tested for their potential cytotoxic activity. During the assays, increasing concentrations of the compounds, ranging from […], were added for 24 h or 48 h to cancer LoVo, SK-OV-3, MCF-7, and the reference HUVEC cells, previously cultured for 24 h in 96-well flat bottom plates. […] Then, MTS reagent was added, and cells were incubated for 4 h at 37 °C in a 5% CO2 humidified atmosphere. The absorbance values were spectrophotometrically read to a Dynex ELISA reader at λ = […].
(§3) For the evaluation of the in vitro potential anti-proliferative effects of treatments with the new compounds under study against solid tumor-derived cells, several compound-mediated cytotoxicity assays were performed on three adherent tumor standardized cell lines, and normal human endothelial cells, used as control: the MCF-7 human breast adenocarcinoma and SK-OV-3 human ovary adenocarcinoma cell lines were provided from European Collection of Authenticated Cell Cultures (ECACC), while LoVo, human colorectal adenocarcinoma cell line, and HUVEC human umbilical vein endothelial cells were purchased from American Type Culture Collection (ATCC).
(§4) Adherent cells were cultivated in DMEM/F12 medium added with 2 mM L-glutamine and 10% fetal bovine serum, 100 units/mL penicillin, 100 µg/mL streptomycin (Sigma Aldrich, St. Louis, MO, USA) and incubated at 37 °C in 5% CO2 humidified atmosphere. The stock solutions for cell treatments were prepared by dissolving the synthesized compounds in a minimum amount of DMSO. Working dilutions were prepared from the stock solutions in culture medium before each treatment assay. After 24 h, when cell cultures achieved around 70% confluence, treatments were applied for various periods of time with different concentrations of synthesized compounds or oncolytic drugs, used as positive controls.
(§5) Therefore, cell cultures treated with the new compounds or oncolytic drugs for 24 h or 48 h were further subjected to a colorimetric cell viability method, the MTS assay. The absorbance of probes was read, data were calculated, and percentages of cell viability were assessed.
(§6) The evaluation of the compound-induced cytotoxicity was made using the CellTiter 96 Aqueous One Solution Cell Proliferation Assay (Promega, Madison, WI, USA), a reagent that contains both MTS (3-(4,5-dimethylthiazol-2-yl)-5-(3-carboxymethoxyphenyl)-2-(4-sulfophenyl)-2H-tetrazolium, inner salt) and PES ([…], a cationic dye with high chemical stability that binds to MTS and forms a stable solution).
(§7) Briefly, 1.5 × 10^4 cancer or normal cells were cultured in 100 µL/well for 24 h. After the culture supernatants were discarded, cells were treated for additional 24 h or 48 h with increasing concentrations of new compounds or oncolytic drugs. Following the specific treatments, in each well a volume of 20 µL of coloring mixture reagent of MTS and PES was added, and then the plates were incubated with mild agitation every 20 min for 4 h at 37 °C. The color developed during incubation was spectrophotometrically quantified at λ = 492 nm using a Dynex ELISA reader (DYNEX Technologies—MRS, Chantilly, VA, USA).
(§8) Data were expressed as percentages of cell viability of the treated cells, and were calculated and compared to the untreated cells (considered 100% viable), using the formula:Cell viability (%) = (T − B)/(U − B) × 100 where T = absorbance of treated cells, U = absorbance of untreated cells, and B = absorbance of culture medium (blank), for λ = 492 nm.
(§9) The cell viability data were expressed as the mean values ± standard deviations (SD) of three different experiments (n = 3). […] Moreover, a parallel experiment was performed in the absence of cells, with all the concentrations of the compounds being tested for their potential interference with MTS reagents; then, their absorbance values were extracted during calculations.
A general note: Tetrazolium assays rely on reduction of a dye to a coloured formazan, in cell work by metabolically active cells.

Data set [3] shares this test system. Description: MTS cytotoxicity assay, LoVo. The note with it: Homo sapiens, read-out: cell viability. Format: cell-based.
In data set [4] the test system is SK-OV-3 ovary adenocarcinoma cells. Description: MTS cytotoxicity assay, SK-OV-3. The format is cell-based. The settings on record: Homo sapiens, SK-OV-3, 400 μM, read-out: cell viability.
In data set [5] the test system is MCF-7 breast adenocarcinoma cells. The experiment in a line: MTS cytotoxicity assay, MCF-7. The format is cell-based, human. The settings on record: Homo sapiens, MCF7; for viability at 200 µM: MCF-7, 200 μM; for viability at 200 µM / viability at 400 µM: 48 h, read-out: cell viability; for viability at 400 µM: MCF-7, 400 μM; for IC50: MCF-7, 48 h, read-out: IC50 MCF-7 48 h. The procedure: as §2, §3, §4, §5
as §6, with “solution). The assay is based on the ability of the metabolically active cells to reduce the yellow tetrazolium salt MTS to a compound that is soluble in culture medium, the colored formazan, followed by the spectrophotometric evaluation of its concentration.” for “solution).”
as §7, §8
The cell viability data were expressed as the mean values ± standard deviations (SD) of three different experiments (n = 3). […]

Data set [6] concerns SK-OV-3 ovary adenocarcinoma cells. Description: MTS cytotoxicity assay, SK-OV-3. The format is cell-based, human. The note with it: Homo sapiens. The procedure:
as §2, §3, §4, §5, §6, §7, §8, §9

Another data set deals with Triticum aestivum L. The experiment in a line: Triticum test, phytotoxicity (main root length). The format is in vivo. The settings on record: Triticum aestivum, 72 h; Triticum root length, 10–1000 µM, measured over three days. The procedure: Phytobiological testing (Triticum test) was performed by the Constantinescu method which consists in determining the maximum active dilution of a compound. Depending on the duration of action, it can influence root elongation and the […] film. […] Embryonic wheat roots were obtained by germinating homogeneous wheat caryopses in Linhart pots. Then the caryopses with a main root length of 1 cm were placed in the test solutions. For the determination of the action of each compound, five dilutions in the concentration range of 10–1000 µM were obtained and 11 caryopses were placed in them. Petri dishes containing 15 mL of diluted solution were kept under constant conditions of temperature (25 °C), and humidity (60%), in the absence of light. […] The results were expressed in comparison with a 1% DMSO control.
Statistical analyses were performed using the computing and programming environment R, R, v. 4.2.1 [68], under Rstudio, v. 2022.07.2+576 “Spotted Wakerobin” for Windows (RStudio, PBC, Boston, 2022), both for the Triticum and Artemia tests. It used a parametric mixed-effects model (R package “lme4”) and a robust mixed-effects model (R package “robustlmm”), in which root length measurements (Triticum) from all three days were used as the dependent variable, whereas compound, concentration and time were treated as fixed effects, with time (day of measurement) also treated as a random effect. Assessing statistical significance for mixed-effects statistical models is controversial and complex, but as a pragmatic way of working, we have estimated p-values using the Kenward–Rogers approximation (R package “sjPlot”). A variety of R base functions and R packages were used to diagnose the regression models (“car” [72], “MASS” [73], and “gvlma” [74]). Mixed boxplot–dotplot plots were generated using the “ggplot2” package.
The “drc” R package was used to estimate IC50 values for the Triticum bioassay by nonlinear modeling. For Triticum, the relationship between root length and concentration was modeled using Weibull functions with 2, 3, or 4 parameters, depending on the data distribution, the models being selected from a range of several models with different functions and parameters, based on the Akaike’s information criterion (AIC).

For data set [7], the system named is Triticum vulgare root tips. The experiment in a line: Microscopic examination of Triticum root tips (mitotic film changes). The format is in vivo. The settings on record: 1000 μM, 24 h contact. The procedure: Microscopic examination of Triticum vulgare root tips followed the mitotic film changes induced by the tested compounds. Observations were made after 24 h of contact of the caryopses with the test solutions. The study was made in comparison with DMSO control maintained under the same conditions as the samples. To obtain microscopic preparations, sectioning of wheat embryonic roots was carried out at about 5 mm from the tip and stained with dilute […] according to the La Cour procedure. The examination was conducted on a Euromex oxion series 110–240 V/50–60 Hz microscope with digital camera CEMEX 5 DC 5000 C and 40× and 100× lenses with cedar oil immersion (Sigma-Aldrich St. Louis, MO, USA).

Data set [8] is described as follows: MTS cytotoxicity assay, HUVEC normal cells. The format is cell-based, human. The settings on record: human, HUVEC human umbilical vein endothelial cells (normal cells), 400 μM, read-out: cell viability. The procedure: as §2, §3, §4, §5, §6, §7, §8, §9
Where [9] appears, read: SK-OV-3, 24 h, read-out: IC50 Sk-OV-3 24 h.
Where [10] appears, read: SK-OV-3, 48 h, read-out: IC50 Sk-OV-3 48 h.

The structures appear in SMILES notation. Like-named read-outs stand apart in the source and are kept apart here. A value given as a limit tells only on which side of the number the result lay.

As to `CCC(C(=O)O)n1nc(-c2ccccc2)ccc1=O` (centres unmarked) [Compound 2a, 2-(6-Oxo-3-phenylpyridazin-1-yl)butanoic acid], the LC50 (as a rule, the concentration that kills 50% of the test population) at 48 h in data set [1] came to 521 µM. Further, the “toxicity on Daphnia magna” value in the data set on Daphnia magna Straus was “moderate toxicity”. Besides, the IC50 (commonly the concentration that inhibits the measured activity by half) in data set [2] (24 h, read-out: IC50 LoVo 24 h) was no less than 400 µM; in [2] (48 h, read-out: IC50 LoVo 48 h), no less than 400 µM; in data set [5], no less than 400 µM; in data set [6] (setting [9]), no less than 400 µM; in data set [6] (setting [10]), no less than 400 µM; in the data set on Triticum aestivum L., 213 µM. The viability – broadly, a per cent measure of how many cells are alive, often set against a control – at 200 µM in data set [3] (200 μM, 48 h) turned out to be 82.9%; in data set [5], 97%. The viability at 400 µM turned out to be 69.1% in data set [3] (24 h); 60.8% in data set [3] (48 h); 89.3% in [4] (24 h); 85.1% in [4] (48 h); 94% in data set [5].
As to `CCOC(=O)C(CC)n1nc(-c2ccc(F)cc2)ccc1=O` (centres unmarked) [Compound 1b, Ethyl 2-[6-oxo-3-(4-fluorophenyl)pyridazin-1-yl]butanoate], the melting point (commonly the temperature of the solid-liquid transition) fell in the range of 59 to 61 °C.
Still for that read-out and setting: the value for `CCOC(=O)C(CC)n1nc(-c2ccccc2)ccc1=O` (centres unmarked) [Compound 1a, Ethyl 2-(6-oxo-3-phenylpyridazin-1-yl)butanoate] was 56 to 58 °C.
Regarding `CCC(C(=O)O)n1nc(-c2ccc(Cl)cc2)ccc1=O` (centres unmarked) [Compound 2c, 2-[6-Oxo-3-(4-chlorophenyl)pyridazin-1-yl]butanoic acid], the “toxicity on Daphnia magna” value with Daphnia magna Straus is on record as “no toxicity”. For the same molecule, the “L% values (lethality)” value in the data set on Daphnia magna Straus (all tested concentrations) is recorded as “ND * (all L% values were lower than 30%)”. In addition, the IC50 is no less than 400 µM in data set [2] (24 h, read-out: IC50 LoVo 24 h); 367 ± 3.7 µM in data set [2] (48 h, read-out: IC50 LoVo 48 h); no less than 400 µM in data set [6] (setting [9]); no less than 400 µM in data set [6] (setting [10]); 553 µM with Triticum aestivum L.. Besides, the viability at 400 µM worked out at 78.2% in data set [3] (24 h), 48.1% in data set [3] (48 h) and 88.3% in [4] (24 h). In data set [7], the “mitotic film / cell changes in root tips” value was “disorganized metaphase”.
Molecule `CCOC(=O)c1cc(CC)n2nc(-c3ccc(Cl)cc3)ccc12` [Compound 5f, Ethyl 2-(4-chlorophenyl)-7-ethylpyrrolo[1,2-b]pyridazine-5-carboxylate] registered an LC50 at 48 h in [1] of 428 µM. The “toxicity on Daphnia magna” value with Daphnia magna Straus was “moderate toxicity”. Further, the IC50 in data set [2] (24 h, read-out: IC50 LoVo 24 h) is no less than 400 µM; in [2] (48 h, read-out: IC50 LoVo 48 h) it was 353 ± 4.1 µM; in data set [5], no less than 400 µM; in [6] (setting [9]), no less than 400 µM; in data set [6] (setting [10]) it was no less than 400 µM. Besides, the viability at 400 µM in [3] (24 h) stood at 78.2%; in data set [3] (48 h), 41.8%; in data set [4] (48 h) it was 83%; in data set [5], 94%. In data set [8] (24 h), the viability at 24 h, 400 µM was determined as 90%. In data set [8] (48 h), the viability at 48 h, 400 µM stood at 91.6%. For the same molecule, the viability at 200 µM in data set [5] worked out at 97%.
Molecule `CCOC(=O)C(CC)n1nc(-c2ccc(Cl)cc2)ccc1=O` (centres unmarked) [Compound 1c, Ethyl 2-[6-oxo-3-(4-chlorophenyl)pyridazin-1-yl]butanoate] gave a melting point of 49 to 51 °C.
For the molecule `CCOC(=O)c1cc(CC)n2nc(-c3ccccc3)ccc12` [Compound 5d, Ethyl 7-ethyl-2-phenylpyrrolo[1,2-b]pyridazine-5-carboxylate], the melting point lay within 99 to 101 °C.
